According to US7439251B2, “Methods and compositions for treatment of central and peripheral nervous system disorders and novel compounds useful therefor” (Israel Institute for Biological Research, priority 2002, dated 2008):
Entries after “also recorded” stand apart in the source; their conditions may differ.

Key:
[1] = Aging microcebes, chronic treatment; assay type: in vivo; details: chronic treatment for 18 months
From the text: Aging microcebes show similar cognitive deficits and cerebral lesions to those observed in aging humans and in AD patients. Thus this is a good animal model for AD, […] major hallmarks in AD {plaques (Aβ), paired helical filaments (hyperphophorylated and aggregated τ) and cognitive dysfunction}.

[2] = target: M2 mAChR (Homo sapiens, UniProt P08172); assay: Intracellular Ca ions in modified cell cultures, M2; assay type: cell-based; details: 10^−9-10^−3M
M2 mAChR, sequence (P08172 whole entry): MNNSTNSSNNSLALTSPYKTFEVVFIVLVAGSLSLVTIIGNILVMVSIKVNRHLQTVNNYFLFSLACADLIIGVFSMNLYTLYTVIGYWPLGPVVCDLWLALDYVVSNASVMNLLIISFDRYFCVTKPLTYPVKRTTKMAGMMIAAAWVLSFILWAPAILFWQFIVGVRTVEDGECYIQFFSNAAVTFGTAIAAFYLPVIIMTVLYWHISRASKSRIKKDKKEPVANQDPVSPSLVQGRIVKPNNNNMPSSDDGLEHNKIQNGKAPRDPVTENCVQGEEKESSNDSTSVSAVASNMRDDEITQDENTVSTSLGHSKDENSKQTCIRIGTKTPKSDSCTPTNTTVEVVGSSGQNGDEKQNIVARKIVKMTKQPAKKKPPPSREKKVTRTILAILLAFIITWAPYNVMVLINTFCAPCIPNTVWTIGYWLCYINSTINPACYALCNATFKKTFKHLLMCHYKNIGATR

SMILES | astrogliosis and inflammation [1] | cognitive and behavioral impairments [1] | hyperphosphorylated τ proteins, neurons with aggregated τ, paired helical filaments [1] | agonist activity at M2 mAChR [2]
CC1=NCC2(CCN(C)CC2)S1 [AF150(S), 2,8-Dimethyl-1-thia-3,8-diaza-spiro[4.5]dec-2-ene] | decreased astrogliosis and inflammation | improved the cognitive and behavioral impairments | decreased hyperphosphorylated τ proteins | –
CC[C@@H]1SC2(CCNCC2)NC1=O [AF292, (S)-2-Ethyl-1-thia-4,8-diaza-spiro[4.5]decan-3-one] | – | – | – | inactive as an agonist; also recorded: M2 mAChR - no effects as agonist
